In ChEMBL document CHEMBL5058564, “EUbOPEN Chemogenomics Library 2 (Incucyte)” (2022):

Legend:
Format in all cases: toxicity, cell-based
Fibroblast = test: Incucyte cell viability with human fibroblast; settings: 10 µM, compound concentration 10 uM
U2OS = test: Incucyte cell viability with U2OS; settings: human, 10 µM, compound concentration 10 uM
HEK-293T = test: Incucyte cell viability with HEK293T; settings: human, 10 µM, compound concentration 10 uM
[1] = 6 h, replicate number 1, timepoint 6 hours
[2] = 6 h, replicate number 2, timepoint 6 hours
[3] = 12 h, replicate number 2, timepoint 12 hours
[4] = 18 h, replicate number 2, timepoint 18 hours
[5] = 24 h, replicate number 1, timepoint 24 hours
[6] = 24 h, replicate number 2, timepoint 24 hours
[7] = 0 h, replicate number 1, timepoint 0 hours
[8] = 18 h, replicate number 1, timepoint 18 hours
[9] = 0 h, replicate number 2, timepoint 0 hours
[10] = 12 h, replicate number 1, timepoint 12 hours
Note: unitless GR value; below 1 slowed growth and below 0 cell loss.

SMILES	Growth Rate (Fibroblast; [1])	Growth Rate (Fibroblast; [2])	Growth Rate (Fibroblast; [3])	Growth Rate (Fibroblast; [4])	Growth Rate (Fibroblast; [5])	Growth Rate (Fibroblast; [6])	Growth Rate (U2OS; [7])	Growth Rate (U2OS; [2])	Growth Rate (U2OS; [3])	Growth Rate (U2OS; [8])	Growth Rate (U2OS; [4])	Growth Rate (HEK-293T; [2])	Growth Rate (HEK-293T; [3])	Growth Rate (HEK-293T; [8])	Growth Rate (HEK-293T; [4])	Growth Rate (HEK-293T; [5])	Growth Rate (Fibroblast; [9])	Growth Rate (Fibroblast; [10])	Growth Rate (Fibroblast; [8])	Growth Rate (U2OS; [6])	further results
CC#C[C@@H](CC(=O)O)c1ccc(OCc2cccc(-c3ccc(C(F)(F)F)cc3)c2)cc1	0.66	-0.08	0.23	0.02	0.66	0.31	0.35	0.69	0.96	0.85	0.96	0.55	0.95	0.65	0.93	0.68	–	–	–	–	–
Cc1cc(OCCCS(C)(=O)=O)cc(C)c1-c1cccc(COc2ccc3c(c2)OC[C@H]3CC(=O)O)c1	-0.03	0.19	0.55	0.31	0.78	0.67	0.26	0.73	0.89	–	0.9	–	–	0.7	–	0.69	0.69	1	–	–	–
O=C1COc2nccc(-c3ccccc3F)c2CN1Cc1cc(C(F)(F)F)cc(C(F)(F)F)c1	0.17	–	–	–	0.73	–	-0.7	–	0.96	0.97	0.94	0.77	0.89	0.98	0.88	–	–	0.8	0.58	0.93	Growth Rate (U2OS; [5]): 0.88
CCc1nc2c(C)cc(C)nc2[nH]1	–	0.58	0.69	0.92	–	–	–	–	–	0.7	0.93	–	–	–	0.89	–	–	–	–	0.96	Growth Rate (Fibroblast; [7]): 0.65; Growth Rate (U2OS; [1]): 0.2; Growth Rate (U2OS; [10]): 0.62
Br.CS(=O)(=O)Nc1c(O)ccc2c1CCCC2C1=NCCN1 (stereo unspecified)	–	–	–	–	0.94	–	–	–	–	0.68	–	0.33	–	–	–	–	0.39	–	–	–	Growth Rate (Fibroblast; [7]): 0.32; Growth Rate (U2OS; [9]): -1; Growth Rate (U2OS; [1]): -0.8; Growth Rate (U2OS; [10]): 0.72; Growth Rate (U2OS; [5]): 0.86; Growth Rate (HEK-293T; [10]): 0.92
CC[C@H]1OC(=O)[C@H](C)[C@@H](O[C@H]2C[C@@](C)(OC)[C@@H](O)[C@H](C)O2)[C@H](C)[C@@H](O[C@@H]2O[C@H](C)C[C@H](N(C)C)[C@H]2O)[C@@]2(C)CC(C)=C(O2)[C@H](C)[C@@H](O)[C@]1(C)O	0.46	0.95	0.44	–	0.64	–	–	–	–	–	0.96	0.55	0.77	–	0.75	–	–	0.38	0.44	–	Growth Rate (HEK-293T; [6]): 0.82
Cc1noc(-c2ccc(-c3ccc(CC(=O)O)cc3)cc2)c1NC(=O)O[C@H](C)c1ccccc1Cl	–	–	–	–	–	–	–	0.82	0.92	–	0.93	–	–	0.67	–	0.81	0.54	–	–	0.95	Growth Rate (Fibroblast; [7]): -0.69; Growth Rate (HEK-293T; [10]): 0.85
Cc1ccc(Cn2nc(C(=O)N[C@@H]3C(C)(C)[C@@H]4CC[C@@]3(C)C4)cc2-c2ccc(Cl)c(C)c2)cc1	0.46	0.01	0.14	–	0.72	–	-1	0.89	0.74	–	0.82	0.75	0.96	0.94	–	0.95	–	0.76	0.78	0.74	Growth Rate (U2OS; [10]): 0.92; Growth Rate (U2OS; [5]): 0.86
CN(C)[C@H]1CN(C2CCc3cccc(F)c32)C[C@@H]1c1ccc(N2CCN(S(C)(=O)=O)CC2)cc1 (stereo partly specified)	–	0.88	–	–	0.75	–	-0.44	0.61	0.83	0.87	0.9	0.35	0.71	–	0.89	–	–	–	0.68	0.98	Growth Rate (U2OS; [9]): -0.68; Growth Rate (U2OS; [1]): 0.58; Growth Rate (U2OS; [10]): 0.63; Growth Rate (U2OS; [5]): 0.97; Growth Rate (HEK-293T; [6]): 0.8
O=c1c2cccn2c2ccccc2n1CCCN1CCC(c2ccc(Cl)cc2)CC1	-0.55	-0.88	-0.58	-0.28	-0.3	-0.26	–	–	0.89	–	0.89	0.34	0.39	0.56	0.55	0.76	–	-0.52	-0.55	0.8	Growth Rate (U2OS; [9]): -1; Growth Rate (HEK-293T; [10]): 0.61; Growth Rate (HEK-293T; [6]): 0.9
CC(F)(F)CN1CCOc2c(nn(-c3ccccc3Cl)c2-c2ccc(Cl)cc2)C1=O	-0.37	0.94	0.22	0.75	-0.09	0.06	–	–	–	–	–	–	0.82	–	–	–	–	0.01	-0.21	–	Growth Rate (U2OS; [9]): -1
CN1CCN(c2cc(-c3ccccc3)nc(N)n2)CC1	–	–	–	–	0.83	–	0.75	0.59	0.96	0.97	–	0.96	–	–	–	–	0.38	0.86	0.76	–	Growth Rate (Fibroblast; [7]): 0.2
CCC(C)n1ncn(-c2ccc(N3CCN(c4ccc(OC[C@@H]5CO[C@@](Cn6cncn6)(c6ccc(Cl)cc6Cl)O5)cc4)CC3)cc2)c1=O.CCC(C)n1ncn(-c2ccc(N3CCN(c4ccc(OC[C@H]5CO[C@](Cn6cncn6)(c6ccc(Cl)cc6Cl)O5)cc4)CC3)cc2)c1=O (stereo partly specified)	–	–	–	–	–	0.95	-0.09	–	–	–	–	0.11	0.15	0.44	0.02	-0.08	-0.02	–	–	0.94	Growth Rate (Fibroblast; [7]): 0.6; Growth Rate (U2OS; [5]): 0.73; Growth Rate (HEK-293T; [1]): -0.37; Growth Rate (HEK-293T; [10]): -0.28; Growth Rate (HEK-293T; [6]): 0.33
COc1ccc(S(=O)(=O)N2C(=O)[C@@](c3ccccc3OC)(N3C[C@H](O)C[C@H]3C(=O)N(C)C)c3cc(Cl)ccc32)c(OC)c1	0.08	-0.04	0.24	0.45	0.43	0.6	0.6	–	–	0.82	0.98	0.78	–	–	–	–	–	0.09	0.36	0.9	Growth Rate (U2OS; [9]): -1; Growth Rate (U2OS; [1]): 0.33
